According to patent US10214546B2, “Btk inhibitors” (MERCK SHARP & DOHME CORP., priority 2014, dated 2019):
Like-named read-outs stand apart in the source and are kept apart here.

Legend:
[1] = molecular target: BTK enzyme (recombinant full-length BTK, hBTK) (Homo sapiens (Human), UniProt Q06187); experiment: BTK enzymatic activity LANCE TR-FRET assay; assay type: biochemical; details: 50 pM hBTK, 25 μM ATP, 2 μM biotin-A5-peptide; compound range 1 μM to 0.017 nM; read-out: BTK binding IC50
[2] = tested on: adenosine uptake into HeLa cells; experiment: [3H]Adenosine uptake assay in HeLa cells; assay type: cell-based; details: [3H]adenosine accumulation in HeLa cells, compound range 10 μM to 0.032 nM, read-out: ADU inhibition IC50
Outline: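 HeLa cells in HBSS + 5% FBS were preincubated 30 min at ambient temperature with compound (ten-point 1:3 series, 10 µM–[…] final), then given [3H]adenosine (added as a 500 nM solution) for 60 min. Cell-associated label was read by scintillating-plate proximity counting; IC50 from 4-parameter fit of cps versus log concentration.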

BTK enzyme (recombinant full-length BTK, hBTK), sequence (Q06187 whole entry): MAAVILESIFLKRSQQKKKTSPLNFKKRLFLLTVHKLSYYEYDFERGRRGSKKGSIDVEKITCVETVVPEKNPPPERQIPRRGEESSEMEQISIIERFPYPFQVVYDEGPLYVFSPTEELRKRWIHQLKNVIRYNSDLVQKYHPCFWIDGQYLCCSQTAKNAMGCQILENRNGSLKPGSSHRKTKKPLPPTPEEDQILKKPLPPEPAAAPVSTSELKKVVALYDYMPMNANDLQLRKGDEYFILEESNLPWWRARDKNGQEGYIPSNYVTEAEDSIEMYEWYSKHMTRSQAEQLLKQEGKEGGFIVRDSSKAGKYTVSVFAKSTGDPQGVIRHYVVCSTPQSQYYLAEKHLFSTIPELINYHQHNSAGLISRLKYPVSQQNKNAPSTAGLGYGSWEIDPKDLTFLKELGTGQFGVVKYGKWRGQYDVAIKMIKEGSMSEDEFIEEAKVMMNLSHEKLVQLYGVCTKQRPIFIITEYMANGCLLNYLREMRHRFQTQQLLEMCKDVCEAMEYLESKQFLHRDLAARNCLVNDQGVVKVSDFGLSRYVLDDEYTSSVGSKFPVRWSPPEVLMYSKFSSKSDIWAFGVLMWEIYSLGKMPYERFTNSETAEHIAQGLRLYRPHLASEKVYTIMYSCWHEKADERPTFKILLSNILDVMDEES

SMILES | IC50 [1] [µM] | IC50 [2] [µM] | IC50 ([2]; Homo sapiens, HeLa) [µM]
CC(O)(c1cccc(C(F)F)c1)c1ccc(-c2nc([C@@H]3CC[C@H]4CCC(=O)N4C3)n3c(F)cnc(N)c23)c(F)c1 (stereo partly drawn) [Example 207, (6R,8aS)-6-[8-amino-1-(4-{1-[3-(difluoromethyl)phenyl]-1-hydroxyethyl}-2-fluorophenyl)-5-fluoroimidazo[1,5-a]pyrazin-3-yl]hexahydroindolizin-3(2H)-one] | 0.459 | 0.933 | 
CC(O)(c1cccc(C(F)(F)F)c1)c1ccc(-c2nc([C@@H]3CC[C@@H]4N(C3)C(=O)CC4(C)C)n3ccnc(N)c23)c(F)c1 (stereo partly drawn) [Example 191, (6R,8aS)-6-[8-amino-1-(2-fluoro-4-{1-hydroxy-1-[3-(trifluoromethyl)phenyl]ethyl}phenyl)imidazo [1,5-a]pyrazin-3-yl]-1,1-dimethylhexahydroindolizin-3(2H)-one] | 0.0369 | 0.431 | 
C[C@@](O)(c1ccc(-c2nc([C@H]3CC[C@@H]4N(C3)C(=O)CCC4(F)F)n3ccnc(N)c23)cc1)c1cccc(C(F)(F)F)c1 [Example 171, (7S,9aS)-7-[8-amino-1-(4-{(1R)-1-hydroxy-1-[3-(trifluoromethyl)phenyl]ethyl}phenyl)imidazo [1,5-a]pyrazin-3-yl]-1,1-difluorooctahydro-4H-quinolizin-4-one] | 0.089 |  | 7.96
C[C@@H]1OC(=O)N2C[C@H](c3nc(-c4ccc([C@@](C)(O)c5cccc(C(F)(F)F)c5)cc4)c4c(N)nccn34)OC[C@@H]12 [Example 9, (6R,8aS)-6-(8-amino-1-(4-((R)-1-hydroxy-1-(3-(trifluoromethyl)phenyl)ethyl)phenyl)imidazo[1,5-a]pyrazin-3-yl)-1-methyltetrahydrooxazolo[4,3-c][1,4]oxazin-3(1H)-one] | 0.013 |  | 5.54

The next lines start with the values.

IC50 [1] [µM] | IC50 [2] [µM] | IC50 ([2]; Homo sapiens, HeLa) [µM] | SMILES
0.0018 | 5.34 |  | COc1cc(C(O)(c2cccc(C(F)(F)F)c2)C(F)(F)F)ccc1-c1nc([C@@H]2CC[C@H]3CCC(=O)N3C2)n2ccnc(N)c12 (single isomer, unassigned) [Example 11]
0.002 | 3.5 |  | COc1cc(C(C)(O)c2cccc(C(F)(F)F)c2)ccc1-c1nc([C@@H]2CC[C@@H]3N(C2)C(=O)CC3(C)C)n2ccnc(N)c12 (stereo partly drawn) [Example 205, (6R,8aS)-6-[8-amino-1-(4-{1-hydroxy-1-[3-(trifluoromethyl)phenyl]ethyl}-2-methoxyphenyl)imidazo [1,5-a]pyrazin-3-yl]-1,1-dimethylhexahydroindolizin-3(2H)-one]
0.123 | 1.58 |  | Nc1nccn2c([C@@H]3CC[C@H]4CCC(=O)N4C3)nc(-c3ccc(C(O)(c4cccc(C(F)(F)F)c4)C4CC4)cc3)c12 (stereo partly drawn) [Example 87, (6R,8aS)-6-[8-amino-1-(4-{cyclopropyl(hydroxy)[3-(trifluoromethyl)phenyl]methyl}phenyl)imidazo [1,5-a]pyrazin-3-yl]hexahydroindolizin-3(2H)-one]
0.0012 | 1.86 |  | CC(O)(c1cccc(C(F)(F)F)c1)c1ccc(-c2nc([C@@H]3CC[C@H]4CCC(=O)N4C3)n3c(Cl)cnc(N)c23)c(F)c1 (stereo partly drawn) [Example 193, (6R,8aS)-6-[8-amino-5-chloro-1-(2-fluoro-4-{1-hydroxy-1-[3-(trifluoromethyl)phenyl]ethyl}phenyl)imidazo [1,5-a]pyrazin-3-yl]hexahydroindolizin-3(2H)-one]
0.00041 | 1.35 |  | Nc1nccn2c([C@@H]3CC[C@H]4CCC(=O)N4C3)nc(-c3ccc(C(O)c4cccc(C(F)(F)F)c4)cc3)c12 (stereo partly drawn) [Example 73, (6R,8aS)-6-[8-amino-1-(4-{hydroxy[3-(trifluoromethyl)phenyl]methyl}phenyl)imidazo [1,5-a]pyrazin-3-yl]hexahydroindolizin-3(2H)-one]
0.0041 |  | 3.11 | CCOc1cc(C(O)(c2cccc(C(F)(F)F)c2)C(F)(F)F)ccc1-c1nc([C@@H]2CC[C@H]3CCC(=O)N3C2)n2ccnc(N)c12 (stereo partly drawn) [Example 214, (6R,8aS)-6-[8-amino-1-(2-ethoxy-4-{2,2,2-trifluoro-1-hydroxy-1-[3-(trifluoromethyl)phenyl]ethyl}phenyl)imidazo [1,5-a]pyrazin-3-yl]hexahydroindolizin-3(2H)-one]
